Reference: US9097673B2, “Processes and kits for determining multi-drug resistance of cells” (ENZO LIFE SCIENCES, INC., priority 2010, dated 2015)

What was measured:
A549 cell line = assay: Dye efflux flow cytometry MDR assay; type: cell-based, human; set-up: key to D-value, Verapamil / D-value, Novobiocin: KS D value, 0 to 1; negative if control brighter than sample; details: for D-value, +4° C.: kept on ice without inhibitor
Text: (§1) Kolmogorov-Smirnov statistics measures the difference between two distribution functions and generates a D value ranging between 0 and 1.0, with higher values indicating a greater difference between the distribution functions. The D value generated by the KS statistics was modified by ascribing a negative value if the fluorescence of a negative control (no inhibitor) was brighter than the fluorescence of the sample with inhibitor. The method was one of those recommended by the First International MDR1 Methods Detection Workshop (St. Jude Children's Research Hospital, Memphis, Tenn.).
(§2) Cells were grown in tissue culture dishes and on the day of assay they were trypsinized and washed twice with ice-cold PBS. Post-wash, the cells were re-suspended in cold phenol red indicator-free medium at a density of 1×10^6/ml. For each detection set, eighteen tubes (6 tubes without inhibitor and 3 tubes for each inhibitor tested, in triplicates) each containing 2.5-5×10^5/cells were prepared. Cells were centrifuged at 200×g for 5 min, and after discarding supernatant, re-suspended at 1×10^6/ml in ice-cold indicator-free medium containing Fluo-8™ AM or Rhod-4™ AM probes. Additionally, an aliquot of non-stained cells was prepared for background fluorescence measurements. Cells were incubated with the probe(s) on ice for 60 min, than centrifuged at 200×g for 5 min. After discarding the supernatant, cells were either washed twice with PBS or simply were spun down to remove the excess of the probe and resuspended at 5×10^5 cells/sample in 0.5 ml of following solutions:
(§3) 1. warm (37° C.) indicator-free medium containing vehicle only (3 tubes)
(§4) 2. warm (37° C.) indicator-free medium containing inhibitor (3 tubes for each inhibitor tested)
(§5) 3. ice-cold indicator-free medium (3 tubes)
(§6) Tube sets 1 and 2 were immediately transferred to a water bath (37° C.) and incubated for 90 min. Tube set 3 was kept on ice. Post incubation, 4 ml of ice-cold indicator-free medium was added per tube, tubes were centrifuged at 200×g for 5 min, supernatant was discarded, and cell pellet was re-suspended in the cold indicator-free medium and centrifuged again. Finally, cells were re-suspended in 0.5 ml of cold indicator-free medium and maintained on ice until analysis. Alternatively, cells were analyzed without washing. Flow cytometry experiments were performed as described in Example 3.

HeLa cell line = assay: Dye efflux flow cytometry MDR assay; type: cell-based, human; set-up: key to D-value, Verapamil / D-value, Novobiocin: KS D value, 0 to 1; negative if control brighter than sample; details: for D-value, +4° C.: kept on ice without inhibitor
Text: as §1, §2, §3, §4, §5, §6

[1] = tested on: CHO K1, A549 and HeLa cells; assay: MTT test of dye toxicity; type: cell-based; details: 5 μM Fluo-8 AM, 3 h at 37° C.
Method: Three model cell lines (CHO K1, A549 and HeLa cells) were seeded in 96 well plates (5×10^3 cells/well) and 24 h later were treated with the working concentrations of dyes (0.5 μM of Calcein AM, 5 μM of Fluo-8™ AM, 4 μM of Rhod-4™ AM) used in the MDR assay for 3 h at 37° C. Then reagents were removed and a standard MTT test was performed as described elsewhere [Mosmann T., J Immunol Methods 65(1-2):55-63 (1983)]. Viability was calculated as a ratio of OD595 for treated cells to the OD595 of untreated control cells (FIG. 4). […] Additionally, the concentration of Rhod-4™ AM can be decreased further for particularly sensitive cell lines.

[2] = A549, dye efflux, representative experiment (Table 9)
[3] = Fluo-8 AM probe, dye efflux, A549, No Wash
[4] = Fluo-8 AM probe, dye efflux, A549, Wash
[5] = representative experiment (Table 9)

## CC(=O)OCOC(=O)CN(CC(=O)OCOC(C)=O)c1ccccc1OCCOc1cc(-c2c3ccc(=O)cc-3oc3cc(OCOC(C)=O)ccc23)ccc1N(CC(=O)OCOC(C)=O)CC(=O)OCOC(C)=O [Fluo-8 ™ AM]
A549 cell line; A549, dye efflux, kept on ice without inhibitor (Table 9)
  D-value, 4° C.: 0.80
A549 cell line; [2]
  D-value, Cyclosporine A: 0.5
  D-value, Novobiocin: 0.57
  D-value, Probenecid: 0.33
  D-value, Verapamil: 0.02
A549 cell line; [3]
  D-value, Cyclosporin A: 0.83
  D-value, Novobiocin: 0.57
  D-value, Probenecid: 0.33
  D-value, Verapamil: 0.12
  D-value, +4° C.: 0.77
A549 cell line; [4]
  D-value, Cyclosporin A: 0.71
  D-value, Novobiocin: 0.46
  D-value, Probenecid: 0.18
  D-value, Verapamil: 0.11
  D-value, +4° C.: 0.75
HeLa cell line; Fluo-8 AM probe, No Wash
  D-value, Cyclosporin A: 0.12
  D-value, Novobiocin: 0.13
  D-value, Probenecid: 0.13
  D-value, Verapamil: 0.076
  D-value, +4° C.: 0.15
HeLa cell line; Fluo-8 AM probe, Wash
  D-value, Cyclosporin A: 0.14
  D-value, Novobiocin: 0.16
  D-value, Probenecid: 0.14
  D-value, Verapamil: 0.14
  D-value, +4° C.: 0.14
HeLa cell line; kept on ice without inhibitor (Table 9)
  D-value, 4° C.: 0.83
HeLa cell line; [5]
  D-value, Cyclosporine A: 0.13
  D-value, Novobiocin: 0.15
  D-value, Probenecid: 0.16
  D-value, Verapamil: 0.15
[1]
  Toxicity to the cells (MTT viability): not toxic
